According to patent US20110130426A1, “Novel Sulphonamide Derivatives as Glucocorticoid Receptor Modulators for the Treatment of Inflammatory Diseases” (ASTRAZENECA AB, priority 2004, published 2011):

Molecular target: T1, recombinant human GR (Homo sapiens, UniProt P04150)
T1 construct: purchased Panvera/Invitrogen P2812 (kit P2893)
T1 sequence (P04150 1-777): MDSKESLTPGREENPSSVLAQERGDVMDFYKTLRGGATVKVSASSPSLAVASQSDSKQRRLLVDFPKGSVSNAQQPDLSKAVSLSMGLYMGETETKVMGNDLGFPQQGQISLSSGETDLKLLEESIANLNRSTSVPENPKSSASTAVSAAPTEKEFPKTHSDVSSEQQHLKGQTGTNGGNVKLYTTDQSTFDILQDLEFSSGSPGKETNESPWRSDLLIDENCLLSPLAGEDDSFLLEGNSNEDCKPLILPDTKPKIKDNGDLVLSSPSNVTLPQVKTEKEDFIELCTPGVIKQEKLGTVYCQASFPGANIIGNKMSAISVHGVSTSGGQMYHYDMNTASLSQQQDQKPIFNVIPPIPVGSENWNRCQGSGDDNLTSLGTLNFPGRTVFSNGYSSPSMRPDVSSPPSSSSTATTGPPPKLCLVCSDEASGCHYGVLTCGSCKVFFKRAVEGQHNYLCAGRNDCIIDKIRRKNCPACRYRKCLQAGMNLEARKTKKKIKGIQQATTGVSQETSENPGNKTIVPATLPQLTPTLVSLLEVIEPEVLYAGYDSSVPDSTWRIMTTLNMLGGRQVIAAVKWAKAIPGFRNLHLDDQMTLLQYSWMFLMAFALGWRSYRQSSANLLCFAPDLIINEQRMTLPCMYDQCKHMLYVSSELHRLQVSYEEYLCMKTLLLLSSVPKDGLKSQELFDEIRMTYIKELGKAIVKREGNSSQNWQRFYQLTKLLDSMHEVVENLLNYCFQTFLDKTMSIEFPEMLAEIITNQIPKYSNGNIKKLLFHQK
Test: Human Glucocorticoid Receptor (GR) Assay, fluorescence polarization
Type: binding
Conditions: GS Red tracer, 2 hours at room temperature
Experimental: Human Glucocorticoid Receptor (GR) Assay
The assay is based on a commercial kit from Panvera/Invitrogen (Part number P2893). The assay technology is fluorescence polarization. The kit utilises recombinant human GR (Panvera, Part number P2812), a Fluoromone™ labelled tracer (GS Red, Panvera, Part number P2894) and a Stabilizing Peptide 10X (Panvera, Part number P2815). The GR and Stabilizing Peptide reagents are stored at −70° C. while the GS Red is stored at −20° C. Also included in the kit are 1M DTT (Panvera, Part number P2325, stored at −20° C.) and GR Screening buffer 10X (Panvera, Part number P2814, stored at −70° C. initially but once thawed stored at room temperature). Avoid repeated freeze/thaws for all reagents. The GR Screening buffer 10X comprises 100 mM potassium phosphate, 200 mM sodium molybdate, 1 mM EDTA and 20% DMSO.
Test compounds (1 μL) and controls (1 μL) in 100% DMSO were added to black polystyrene 384-well plates (Greiner low volume black flat-bottom, part number 784076). 0% control was 100% DMSO and 100% control was 10 μM Dexamethasone. Background solution ([…]; assay buffer 10X, Stabilizing Peptide, DTT and ice cold MQ water) was added to the background wells. GS Red solution (7 μL; assay buffer 10X, Stabilizing Peptide, DTT, GS Red and ice cold water) was added to all wells except background wells. GR solution (7 μL; assay buffer 10X, Stabilizing Peptide, DTT, GR and ice cold water) was added to all wells. The plate was sealed and incubated in a dark at room temperature for 2 hours. The plate was read in an Analyst plate reader (LJL Biosystems/Molecular Devices Corporation) or other similar plate reader capable of recording fluorescence polarization (excitation wavelength 530 nm, emission wavelength […] and a dichroic mirror at 561 nm). The IC50 values were calculated using XLfit model 205.

Compound	IC50
O=[N+]([O-])c1ccc(S(=O)(=O)NCc2ccc(-c3ccc(Cl)cc3)s2)cc1 [Example 20, N-{[5-(4-Chlorophenyl)-2-thienyl]methyl}-4-nitrobenzenesulfonamide]	59 nM
COc1ccc(S(=O)(=O)NCc2ccc(-c3ccc(Cl)cc3)s2)cc1 [Example 26, N-{[5-(4-Chlorophenyl)-2-thienyl]methyl}-4-methoxybenzenesulfonamide]	200 nM
O=S(=O)(NCc1ccc(-c2ccc(Cl)cc2)s1)c1ccc(F)cc1 [Example 21, N-{[5-(4-Chlorophenyl)-2-thienyl]methyl}-4-fluorobenzenesulfonamide]	62 nM
N-{[5-(4-Chlorophenyl)-2-thienyl]methyl}-3-(4-methylphenoxy)benzenesulfonamide [Example 32]	390 nM
COc1cc(C)c(S(=O)(=O)NCc2ccc(-c3ccc(Cl)cc3)s2)c(C)c1C [Example 31, N-{[5-(4-Chlorophenyl)-2-thienyl]methyl}-4-methoxy-2,3,6-trimethylbenzenesulfonamide]	330 nM
Cc1onc(-c2ccccc2)c1CNS(=O)(=O)c1ccc(-c2ccc(F)cc2)cc1 [Example 2, 4′-Fluoro-biphenyl-4-sulfonic acid (5-methyl-3-phenyl-isoxazol-4-ylmethyl)-amide]	35 nM
Cn1nc(-c2ccc(S(=O)(=O)Nc3cccc(CCc4ccccn4)c3)s2)cc1C(F)(F)F [Example 23, 5-[1-Methyl-5-(trifluoromethyl)-1H-pyrazol-3-yl]-N-[3-(2-pyridin-2-ylethyl)phenyl]-thiophene-2-sulfonamide]	110 nM
COc1cccc(S(=O)(=O)NCc2ccc(-c3ccc(Cl)cc3)s2)c1 [Example 30, N-{[5-(4-Chlorophenyl)-2-thienyl]methyl}-3-methoxybenzenesulfonamide]	310 nM
O=S(=O)(NCc1ccc(-c2ccc(Cl)cc2)s1)c1ccccc1Br [Example 24, 2-Bromo-N-{[5-(4-chlorophenyl)-2-thienyl]methyl}benzenesulfonamide]	170 nM
Cc1cc(C)c(S(=O)(=O)NCc2ccc(-c3ccc(Cl)cc3)s2)c(C)c1 [Example 19, N-{[5-(4-Chlorophenyl)-2-thienyl]methyl}-2,4,6-trimethylbenzenesulfonamide]	36 nM
Cc1onc(-c2ccccc2)c1CNS(=O)(=O)c1ccc(-c2ccccc2)cc1 [Example 5, Biphenyl-4-sulfonic acid (5-methyl-3-phenyl-isoxazol-4-ylmethyl)-amide]	370 nM
CCCCOc1ccc(S(=O)(=O)NCc2c(-c3ccccc3)noc2C)cc1 [Example 6, 4-n-Butoxy-N-(5-methyl-3-phenyl-isoxazol-4-ylmethyl)-benzenesulfonamide]	700 nM
N#Cc1cccc(S(=O)(=O)NCc2ccc(-c3ccc(Cl)cc3)s2)c1 [Example 37, N-{[5-(4-Chlorophenyl)-2-thienyl]methyl}-3-cyanobenzenesulfonamide]	820 nM
O=S(=O)(Cc1ccc(Cl)cc1)NCc1ccc(-c2ccc(Cl)cc2)s1 [Example 34, 1-(4-Chlorophenyl)-N-{[5-(4-chlorophenyl)-2-thienyl]methyl}methanesulfonamide]	660 nM
COc1cc(C)c(S(=O)(=O)NCc2c(-c3ccccc3)noc2C)c(C)c1C [Example 1, 4-Methoxy-2,3,6-trimethyl-N-(5-methyl-3-phenyl-isoxazol-4-ylmethyl)-benzenesulfonamide]	14 nM
N-{[5-(4-Chlorophenyl)-2-thienyl]methyl}-4-(pyridin-2-yloxy)benzenesulfonamide [Example 25]	170 nM

Results, then the compound that gave them:

IC50	Compound
230 nM	Cc1cc(C)cc(S(=O)(=O)Nc2cccc(CCc3ccccn3)c2)c1 [Example 29, 3,5-Dimethyl-N-[3-(2-pyridin-2-ylethyl)phenyl]benzenesulfonamide]
99 nM	Cc1c(S(=O)(=O)Nc2cccc(CCc3ccccn3)c2)cnn1-c1ccccc1 [Example 22, 5-Methyl-1-phenyl-N-[3-(2-pyridin-2-ylethyl)phenyl]-1H-pyrazole-4-sulfonamide]
650 nM	O=S(=O)(Nc1cccc(CCc2ccccn2)c1)c1ccc(Cl)s1 [Example 33, 5-Chloro-N-[3-(2-pyridin-2-ylethyl)phenyl]thiophene-2-sulfonamide]
810 nM	Cc1nn(C(F)F)c(C)c1S(=O)(=O)Nc1cccc(CCc2ccccn2)c1 [Example 36, 1-(Difluoromethyl)-3,5-dimethyl-N-[3-(2-pyridin-2-ylethyl)phenyl]-1H-pyrazole-4-sulfonamide]
200 nM	O=S(=O)(Nc1cccc(CCc2ccccn2)c1)c1ccc(-c2ccccn2)s1 [Example 27, 5-Pyridin-2-yl-N-[3-(2-pyridin-2-ylethyl)phenyl]thiophene-2-sulfonamide]
350 nM	Cc1ccc(C)c(S(=O)(=O)Nc2cccc(CCc3ccccn3)c2)c1 [Compound 49]
710 nM	Cc1cc(S(=O)(=O)Nc2cccc(CCc3ccccn3)c2)c(C)o1 [Example 35, 2,5-Dimethyl-N-[3-(2-pyridin-2-ylethyl)phenyl]furan-3-sulfonamide]
220 nM	Cc1cc(S(=O)(=O)Nc2cccc(CCc3ccccn3)c2)c(C)s1 [Example 28, 2,5-dimethyl-N-[3-(2-pyridin-2-ylethyl)phenyl]thiophene-3-sulfonamide]
